The values that follow are results of earlier work, collected in patent publication US10144908B2, “Liquid soap having enhanced antibacterial activity” (Conopco, Inc., priority 2013, dated 2018).

The conditions of this series: in water at 25° C.

For the compound `O=C([O-])CC(O)(CC(=O)[O-])C(=O)[O-].[Ag+].[Ag+].[Ag+]` [Silver citrate], the Ksp is 2.5e-16 mol/L.
